In PubChem BioAssay AID256 (DTP/NCI, 2004):
Toxic doses and inconclusive results are not listed.

System: CD2F1 mice, L1210 leukemia ip, survival T/C
Experiment: NCI In Vivo Anticancer Drug Screen. Data for tumor model L1210 Leukemia (intraperitoneal) in CD2F1 (CDF1) mice
Conditions: endpoint: mean survival time, higher = longer survival
How it was run: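 Antitumor effect is scored in animals hosting a serially transplanted tumor. Values compare compound-dosed animals against vehicle-only controls as a simple quotient.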

[1] = dose: 100.0 mg/kg/injection, schedule: Q04DX003 (ip), vehicle: saline with Tween-80
[2] = dose: 200.0 mg/kg/injection, schedule: Q04DX003 (ip), vehicle: saline with Tween-80
[3] = dose: 400.0 mg/kg/injection, schedule: Q04DX003 (ip), vehicle: saline with Tween-80
[4] = dose: 100.0 mg/kg/injection, schedule: Q01DX009 (ip), vehicle: saline with Tween-80
[5] = dose: 200.0 mg/kg/injection, schedule: Q01DX009 (ip), vehicle: saline with Tween-80
[6] = dose: 100.0 mg/kg/injection, schedule: Q01DX001 (ip), vehicle: saline

SMILES: O=C(C(Cl)Cl)N(O)c1ccccc1OCc1ccccc1
- T/C [1]: 105 % of control
- T/C [2]: 103 % of control
- T/C [3]: 103 % of control

SMILES: COC(=O)C1(C)CCC(=O)O1 (configuration not stated)
- T/C (dose: 100.0 mg/kg/injection, schedule: Q04DX002 (ip), vehicle: saline with Tween-80): 98 % of control
- T/C (dose: 200.0 mg/kg/injection, schedule: Q04DX002 (ip), vehicle: saline with Tween-80): 98 % of control
- T/C (dose: 400.0 mg/kg/injection, schedule: Q04DX002 (ip), vehicle: saline with Tween-80): 102 % of control

SMILES: CC(=O)OCC1OC(OC(C)=O)C(OC(C)=O)C(OC(C)=O)C1OC(C)=O (configuration not stated)
- T/C (dose: 100.0 mg/kg/injection, schedule: Q04DX003 (ip), vehicle: saline): 95 % of control
- T/C (dose: 200.0 mg/kg/injection, schedule: Q04DX003 (ip), vehicle: saline): 98 % of control
- T/C (dose: 400.0 mg/kg/injection, schedule: Q04DX003 (ip), vehicle: saline): 97 % of control

SMILES: O=C(CCl)Nc1ccc(-c2c(NC(=O)CCl)ncc3ccccc23)cc1
- T/C (dose: 18.75 mg/kg/injection, schedule: Q04DX003 (ip), vehicle: other): 100 % of control
- T/C (dose: 37.5 mg/kg/injection, schedule: Q04DX003 (ip), vehicle: other): 108 % of control
- T/C (dose: 75.0 mg/kg/injection, schedule: Q04DX003 (ip), vehicle: other): 108 % of control
- T/C (dose: 150.0 mg/kg/injection, schedule: Q04DX003 (ip), vehicle: other): 108 % of control

SMILES: CC(CP(=O)(c1ccccc1)c1ccccc1)C(O)(C(=O)c1ccccc1)c1ccccc1 (configuration not stated)
- T/C [4]: 95 % of control
- T/C [1]: 97 % of control
- T/C [5]: 97 % of control
- T/C [2]: 94 % of control
- T/C [3]: 102 % of control

SMILES: CCOc1ccc(NC(=O)C(C)O)cc1 (configuration not stated)
- T/C [4]: 95 % of control
- T/C [1]: 103 % of control
- T/C [5]: 101 % of control
- T/C [2]: 97 % of control
- T/C (dose: 400.0 mg/kg/injection, schedule: Q01DX009 (ip), vehicle: saline with Tween-80): 107 % of control
- T/C [3]: 97 % of control

SMILES: CCC12CN3CCc4c([nH]c5ccccc45)C(C(=O)OC)(c4cc5c(cc4OC)N(C)C4C(O)(C(=O)OC)C(OC(C)=O)C6(CC)C=CCN7CCC54C76)CC(C3)C1O2.CI.CO.[I][Hg][I] (configuration not stated)
- T/C [6]: 100 % of control

SMILES: CC(=O)NC(=O)CC(O)(c1ccccc1)c1ccccc1
- T/C (dose: 200.0 mg/kg/injection, schedule: Q01DX001 (ip), vehicle: saline with Tween-80): 91 % of control
- T/C (dose: 400.0 mg/kg/injection, schedule: Q01DX001 (ip), vehicle: saline with Tween-80): 88 % of control

SMILES: Cc1cccc(OCC(=O)O)c1
- T/C (dose: 50.0 mg/kg/injection, schedule: Q01DX009 (ip), vehicle: saline with Tween-80): 97 % of control
- T/C [4]: 95 % of control
- T/C [1]: 95 % of control
- T/C [5]: 90 % of control
- T/C [2]: 93 % of control

SMILES: CCCCCCCCCCCC(=O)OCC1OC2C(Oc3nc(=N)ccn32)C1OC(=O)CCCCCCCCCCC (configuration not stated)
- T/C (dose: 12.5 mg/kg/injection, schedule: Q01DX009 (ip), vehicle: water): 168 % of control
- T/C (dose: 25.0 mg/kg/injection, schedule: Q01DX009 (ip), vehicle: water): 247 % of control
- T/C (dose: 50.0 mg/kg/injection, schedule: Q01DX009 (ip), vehicle: water): 187 % of control
- T/C (dose: 100.0 mg/kg/injection, schedule: Q01DX009 (ip), vehicle: water): 98 % of control

SMILES: OC1CCCCCCCCC1Cl (configuration not stated)
- T/C [4]: 88 % of control
- T/C [1]: 94 % of control
- T/C [2]: 93 % of control
- T/C [3]: 96 % of control

SMILES: CNC(=O)ON=C(c1ccccc1)c1ccccc1
- T/C [6]: 98 % of control
- T/C (dose: 200.0 mg/kg/injection, schedule: Q01DX001 (ip), vehicle: saline): 104 % of control
- T/C (dose: 400.0 mg/kg/injection, schedule: Q01DX001 (ip), vehicle: saline): 102 % of control

SMILES: COc1c(C)c2c(c(O)c1CC(=O)Nc1ccccc1C(=O)O)C(=O)OC2
- T/C (dose: 100.0 mg/kg/injection, schedule: Q04DX002 (ip), vehicle: saline): 96 % of control
- T/C (dose: 200.0 mg/kg/injection, schedule: Q04DX002 (ip), vehicle: saline): 100 % of control
- T/C (dose: 400.0 mg/kg/injection, schedule: Q04DX002 (ip), vehicle: saline): 91 % of control

SMILES: CNc1ccn(C2OC(CO)C(O)C2O)c(=O)n1 (configuration not stated)
- T/C (dose: 100.0 mg/kg/injection, schedule: Q01DX005 (ip), vehicle: distilled water + Tween-80): 107 % of control
- T/C (dose: 200.0 mg/kg/injection, schedule: Q01DX005 (ip), vehicle: distilled water + Tween-80): 104 % of control
- T/C (dose: 400.0 mg/kg/injection, schedule: Q01DX005 (ip), vehicle: distilled water + Tween-80): 107 % of control

SMILES: O=C(c1ccccc1)c1ccc(OCCOc2ccc(C(=O)c3ccccc3)cc2)cc1
- T/C [1]: 96 % of control
- T/C [2]: 93 % of control
- T/C [3]: 93 % of control
